Among the data in patent US11673890B2, “N1-pyrazolospiroketone acetyl-CoA carboxylase inhibitors” (Pfizer Inc., priority 2010, dated 2023) are IC50 values, retold here.

The target of assay [1] is T1, recombinant human ACC1 (rhACC1) (Homo sapiens, UniProt Q13085, DEL44-44).
T1 construct: infected with recombinant baculovirus containing full length human ACC1 cDNA; made in house; host or cells: SF9 insect cells (baculovirus)
The assay is described as follows: recombinant hACC1 Transcreener assay (ADP detection FP). It counts as biochemical. The method, then: For example direct inhibition of ACC activity, for the compound of Formula (1) was determined using preparations of recombinant human ACC1 (rhACC1) and recombinant human ACC2 (rhACC2).
[1] Preparation of rhACC1. Two liters of SF9 cells, infected with recombinant baculovirus containing full length human ACC1 cDNA, were suspended in ice-cold lysis buffer (25 mM Tris, pH 7.5; 150 mM NaCl; 10% glycerol; 5 mM imidazole (EMD Bioscience; Gibbstown, N.J.); 2 mM TCEP (BioVectra; Charlottetown, Canada); Benzonase nuclease (10000 U/100 g cell paste; Novagen; Madison, Wis.); EDTA-free protease inhibitor cocktail (1 tab/50 mL; Roche Diagnostics; Mannheim, Germany). Cells were lysed by 3 cycles of freeze-thaw and centrifuged at 40,000×g for 40 minutes (4° C.). Supernatant was directly loaded onto a HisTrap FF crude column (GE Healthcare; Piscataway, N.J.) and eluted with an imidazole gradient up to 0.5 M over 20 column volumes (CV). ACC1-containing fractions were pooled and diluted 1:5 with 25 mM Tris, pH 7.5, 2 mM TCEP, 10% glycerol and direct loaded onto a CaptoQ (GE Healthcare) column and eluted with an NaCl gradient up to 1 M over 20 CV's. Phosphate groups were removed from purified ACC1 by incubation with lambda phosphatase (100 U/10 μM target protein; New England Biolabs; Beverly, Mass.) for 14 hours at 4° C.; okadaic acid was added (1 μM final concentration; Roche Diagnostics) to inhibit the phosphatase. Purified ACC1 was exchanged into 25 mM Tris, pH 7.5, 2 mM TCEP, 10% glycerol, 0.5 M NaCl by 6 hour dialysis at 4° C. Aliquots were prepared and frozen at −80° C.
[2] […] The final conditions for the assay were 50 mM HEPES, pH 7.2, 10 mM MgCl2, 7.5 mM tripotassium citrate, 2 mM DTT, 0.1 mg/mL BSA, 30 μM acetyl-CoA, 50 μM ATP, and 10 mM KHCO3. Typically, a 10 μl reaction was run for 120 min at 25° C., and 10 μl of Transcreener stop and detect buffer was added and the combination incubated at room temp for an additional 1 hour.
All of the examples in both assays were run with a minimum of n=3.

The target of assay [2] is T2, recombinant human ACC2 (rhACC2) (Homo sapiens, UniProt O00763, V2141I).
T2 construct: a full length Cytomax clone of ACC2 was purchased from Cambridge Bioscience Limited; made in house; host or cells: CHO cells (tetracycline-inducible, pcDNA5 FRT TO-TOPO)
The assay is described as follows: recombinant hACC2 Transcreener assay (ADP detection FP). Type of assay: biochemical. The following applies: 50 μM ATP, minimum of n=3. The protocol:
For example direct inhibition of ACC activity, for the compound of Formula (1) was determined using preparations of recombinant human ACC1 (rhACC1) and recombinant human ACC2 (rhACC2). Representative sequences of the recombinant human ACC1 and ACC2 that can be used in the assay are provided in FIG. 1 (SEQ ID NO. 1) and FIG. 2 (SEQ. ID NO. 2), respectively.
[3] Preparation of rhACC2. Human ACC2 inhibition was measured using purified recombinant human ACC2 (hrACC2). Briefly, a full length Cytomax clone of ACC2 was purchased from Cambridge Bioscience Limited and was sequenced and subcloned into PCDNA5 FRT TO-TOPO (Invitrogen, Carlsbad, Calif.). The ACC2 was expressed in CHO cells by tetracycline induction and harvested in 5 liters of DMEM/F12 with glutamine, biotin, hygromycin and blasticidin with 1 μg/mL tetracycline (Invitrogen, Carlsbad, Calif.). The conditioned medium containing ACC2 was then applied to a Softlink Soft Release Avidin column (Promega, Madison, Wis.) and eluted with 5 mM biotin. 4 mgs of ACC2 were eluted at a concentration of 0.05 mg/mL (determined by A280) with an estimated purity of 95% ([…]). The purified ACC2 was dialyzed in 50 mM Tris, 200 mM NaCl, 4 mM DTT, 2 mM EDTA, and 5% glycerol. The pooled protein was frozen and stored at −80° C., with no loss of activity upon thawing. For measurement of ACC2 activity and assessment of ACC2 inhibition, test compounds were dissolved in DMSO and added to the rhACC2 enzyme as a 5× stock with a final DMSO concentration of 1%.
[4] Measurement of human ACC2 inhibition. hACC2 was assayed in a Costar #3676 (Costar, Cambridge, Mass.) 384-well plate using the Transcreener ADP detection FP assay kit (Bellbrook Labs, Madison, Wis.) using the manufacturer's recommended conditions for a 50 uM ATP reaction. The final conditions for the assay were 50 mM HEPES, pH 7.2, 5 mM MgCl2, 5 mM tripotassium citrate, 2 mM DTT, 0.1 mg/mL BSA, 30 μM acetyl-CoA, 50 μM ATP, and 8 mM KHCO3. Typically, a 10 μl reaction was run for 50 min at 25° C., and 10 μl of Transcreener stop and detect buffer was added and the combination incubated at room temp for an additional 1 hour. The data was acquired on an Envision Fluorescence reader (Perkinelmer) using a 620 excitation Cy5 FP general dual mirror, 620 excitation Cy5 FP filter, 688 emission (S) and a 688 (P) emission filter.
The results using the recombinant hACC1 and recombinant hACC2 Transcreener assays described above are summarized in the table below for the Compounds of Formula (I) exemplified in the Examples above. All of the examples in both assays were run with a minimum of n=3.

[3] abbreviates: recombinant hACC1 Transcreener assay, 50 μM ATP, minimum of n=3, read-out: hACC1.

Read-outs that look alike come from different tables or passages of the source.

T2 sequence (O00763 whole entry V2141I): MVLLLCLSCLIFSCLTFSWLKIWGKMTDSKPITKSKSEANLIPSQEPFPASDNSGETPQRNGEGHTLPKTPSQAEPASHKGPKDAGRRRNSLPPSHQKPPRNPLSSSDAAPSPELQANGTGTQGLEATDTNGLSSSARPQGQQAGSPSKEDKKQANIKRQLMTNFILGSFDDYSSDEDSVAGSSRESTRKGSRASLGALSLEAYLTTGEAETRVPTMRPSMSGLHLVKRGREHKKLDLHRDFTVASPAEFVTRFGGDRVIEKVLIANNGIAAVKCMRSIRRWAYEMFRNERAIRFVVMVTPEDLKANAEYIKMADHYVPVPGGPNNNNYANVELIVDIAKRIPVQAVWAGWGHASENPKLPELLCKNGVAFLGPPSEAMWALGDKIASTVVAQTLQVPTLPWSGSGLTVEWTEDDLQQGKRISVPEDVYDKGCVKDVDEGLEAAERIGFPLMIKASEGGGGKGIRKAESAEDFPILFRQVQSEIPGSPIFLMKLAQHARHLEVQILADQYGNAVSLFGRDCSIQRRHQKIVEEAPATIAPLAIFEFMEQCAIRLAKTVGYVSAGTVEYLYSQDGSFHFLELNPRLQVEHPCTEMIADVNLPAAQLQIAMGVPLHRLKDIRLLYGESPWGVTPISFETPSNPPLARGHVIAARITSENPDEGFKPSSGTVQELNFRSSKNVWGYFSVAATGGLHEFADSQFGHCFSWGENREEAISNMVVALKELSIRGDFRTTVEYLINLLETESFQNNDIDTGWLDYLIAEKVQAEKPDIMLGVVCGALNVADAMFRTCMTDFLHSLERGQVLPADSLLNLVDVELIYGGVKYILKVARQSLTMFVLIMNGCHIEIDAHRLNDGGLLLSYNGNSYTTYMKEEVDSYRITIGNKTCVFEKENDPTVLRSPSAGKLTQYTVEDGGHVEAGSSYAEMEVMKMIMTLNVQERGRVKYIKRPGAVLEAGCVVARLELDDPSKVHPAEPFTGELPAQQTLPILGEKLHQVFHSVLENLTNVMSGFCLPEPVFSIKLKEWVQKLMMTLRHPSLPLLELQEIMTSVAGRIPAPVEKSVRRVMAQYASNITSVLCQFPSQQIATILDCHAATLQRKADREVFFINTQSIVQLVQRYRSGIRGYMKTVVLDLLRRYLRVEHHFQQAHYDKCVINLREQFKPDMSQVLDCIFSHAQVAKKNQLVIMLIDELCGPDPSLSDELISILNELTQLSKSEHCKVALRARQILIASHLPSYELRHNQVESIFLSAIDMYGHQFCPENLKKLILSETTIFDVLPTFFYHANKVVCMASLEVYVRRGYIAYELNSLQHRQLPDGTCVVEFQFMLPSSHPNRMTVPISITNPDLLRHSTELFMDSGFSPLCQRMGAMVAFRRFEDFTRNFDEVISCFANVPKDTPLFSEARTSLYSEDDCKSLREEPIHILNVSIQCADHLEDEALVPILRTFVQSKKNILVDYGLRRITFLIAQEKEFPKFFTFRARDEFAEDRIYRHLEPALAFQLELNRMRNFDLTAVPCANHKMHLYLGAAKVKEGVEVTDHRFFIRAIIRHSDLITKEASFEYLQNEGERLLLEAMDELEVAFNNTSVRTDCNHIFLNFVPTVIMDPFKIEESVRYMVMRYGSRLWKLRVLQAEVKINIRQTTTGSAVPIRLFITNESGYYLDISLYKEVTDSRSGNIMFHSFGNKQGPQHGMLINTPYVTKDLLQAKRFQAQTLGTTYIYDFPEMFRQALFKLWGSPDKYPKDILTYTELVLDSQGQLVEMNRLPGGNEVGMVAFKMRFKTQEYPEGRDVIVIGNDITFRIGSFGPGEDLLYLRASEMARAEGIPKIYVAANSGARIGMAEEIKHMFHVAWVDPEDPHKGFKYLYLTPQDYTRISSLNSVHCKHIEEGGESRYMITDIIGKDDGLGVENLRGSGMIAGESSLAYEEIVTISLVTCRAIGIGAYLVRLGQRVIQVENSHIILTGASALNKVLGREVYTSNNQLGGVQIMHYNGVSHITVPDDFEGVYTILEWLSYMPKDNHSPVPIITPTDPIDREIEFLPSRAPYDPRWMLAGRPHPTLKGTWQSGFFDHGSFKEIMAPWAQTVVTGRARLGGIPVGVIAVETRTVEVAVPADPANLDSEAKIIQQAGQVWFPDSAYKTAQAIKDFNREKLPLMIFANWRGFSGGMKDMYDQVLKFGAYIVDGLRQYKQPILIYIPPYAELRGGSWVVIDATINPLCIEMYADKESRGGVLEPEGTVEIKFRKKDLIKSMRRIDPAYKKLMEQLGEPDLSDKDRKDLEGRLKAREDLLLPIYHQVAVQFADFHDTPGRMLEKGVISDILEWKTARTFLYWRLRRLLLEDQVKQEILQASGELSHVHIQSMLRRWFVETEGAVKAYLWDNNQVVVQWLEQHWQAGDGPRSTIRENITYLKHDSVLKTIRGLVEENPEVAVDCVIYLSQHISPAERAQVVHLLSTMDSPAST

Regarding “3-{2-[(1-isopropyl-7-oxo-1,4,6,7-tetrahydro-1′H-spiro[indazole-5,4′-piperidin]-1′-yl)carbonyl]-1H-benzimidazol-4-yl}benzoic acid [Example 45]”, the IC50 in assay [1] (setting [3]) was 4.9 nM; in assay [2], 10 nM.

Take “3-{5-[(1-isopropyl-7-oxo-1,4,6,7-tetrahydro-1′H-spiro[indazole-5,4′-piperidin]-1′-yl)carbonyl]-6-(methylamino)pyridin-2-yl}benzoic acid [Example 5]”: the IC50 was found to be 163 nM in assay [1] (setting [3]) and 114 nM in assay [2].

With “4-{5-[(1-tert-butyl-7-oxo-1,4,6,7-tetrahydro-1′H-spiro[indazole-5,4′-piperidin]-1′-yl)carbonyl]-6-(ethylamino)pyridin-2-yl}benzoic acid [Example 13]”, the IC50 in assay [1] (setting [3]) was determined as 221 nM; in assay [2], 143 nM.

Consider “4-{5-[(1-tert-butyl-7-oxo-1,4,6,7-tetrahydro-1′H-spiro[indazole-5,4′-piperidin]-1′-yl)carbonyl]-6-(methylamino)pyridin-2-yl}benzoic acid [Example 12]”, for which the figures for the IC50 in assay [1] (setting [3]) and in assay [2] were 152 nM and 94.5 nM, respectively.

“4-{6-(ethylamino)-5-[(1-isopropyl-7-oxo-1,4,6,7-tetrahydro-1′H-spiro[indazole-5,4′-piperidin]-1′-yl)carbonyl]pyridin-2-yl}benzoic acid [Example 14]”: the IC50 was determined as 139 nM in assay [1] (setting [3]) and 76.1 nM in assay [2].

Turning to `CC(C)(C)n1ncc2c1C(=O)CC1(CCN(C(=O)c3ccc(OCc4ccc(C(=O)O)cc4)cc3)CC1)C2` [Example 1, 4-((4-(1-Tert-butyl-7-oxo-1,4,6,7-tetrahydrospiro[indazole-5,4′-piperidine]-1′-ylcarbonyl)phenoxy)methyl)benzoic acid], the IC50 turned out to be 176 nM in assay [1] (setting [3]) and 184 nM in assay [2].

On to `COc1cc(C(=O)N2CCC3(CC2)CC(=O)c2c(cnn2C(C)C)C3)cc(-c2cccc(C(=O)O)c2)n1` [Example 2, 3-(4-(1-Isopropyl-7-oxo-1,4,6,7-tetrahydrospiro[indazole-5,4′-piperidine]-1′-ylcarbonyl)-6-methoxypyridin-2-yl)benzoic acid], for which the results for the IC50 in assay [1] (setting [3]) and in assay [2] were 59.6 nM and 84.1 nM, respectively.

As to `CC(C)n1ncc2c1C(=O)CC1(CCN(C(=O)c3cc(-c4cccc(C(=O)O)c4)[nH]c(=O)c3)CC1)C2` [Example 3, 3-(4-(1-isopropyl-7-oxo-1,4,6,7-tetrahydrospiro[indazole-5,4′-piperidine]-1′-ylcarbonyl)-6-oxo-1,6-dihydropyridin-2-yl)benzoic acid], the values for the IC50 in assay [1] (setting [3]) and in assay [2] were 5400 nM and 2260 nM, respectively.

In the case of `CNc1nc(-c2cccc(C(=O)O)c2)ccc1C(=O)N1CCC2(CC1)CC(=O)c1c(cnn1C(C)(C)C)C2` [Example 4, 3-{5-[(1-tert-butyl-7-oxo-1,4,6,7-tetrahydro-1′H-spiro[indazole-5,4′-piperidin]-1′-yl)carbonyl]-6-(methylamino)pyridin-2-yl}benzoic acid], the IC50 came out at 116 nM in assay [1] (setting [3]) and 53 nM in assay [2].

For the compound `CC(C)(C)n1ncc2c1C(=O)CC1(CCN(C(=O)c3ccc(-c4cccc(C(=O)O)c4)cc3)CC1)C2` [Example 6, 4′-[(1-tert-butyl-7-oxo-1,4,6,7-tetrahydro-1′H-spiro[indazole-5,4′-piperidin]-1′-yl)carbonyl]biphenyl-3-carboxylicacid], the IC50 in assay [1] (setting [3]) is 260 nM; in assay [2], 115 nM.

As to `CC(C)n1ncc2c1C(=O)CC1(CCN(C(=O)c3ccc(-c4cccc(C(=O)O)c4)cc3)CC1)C2` [Example 7, 4′-[(1-isopropyl-7-oxo-1,4,6,7-tetrahydro-1′H-spiro[indazole-5,4′-piperidin]-1′-yl)carbonyl]biphenyl-3-carboxylic acid], the results for the IC50 in assay [1] (setting [3]) and in assay [2] were 113 nM and 74.2 nM, respectively.

Turning to `CNc1nc(-c2ccc(C(=O)O)cc2)ccc1C(=O)N1CCC2(CC1)CC(=O)c1c(cnn1C(C)C)C2` [Example 8, 4-{5-[(1-isopropyl-7-oxo-1,4,6,7-tetrahydro-1′H-spiro[indazole-5,4′-piperidin]-1′-yl)carbonyl]-6-(methylamino)pyridin-2-yl}benzoic acid], the IC50 is 156 nM in assay [1] (setting [3]) and 175 nM in assay [2].

Take `COc1cc(C(=O)N2CCC3(CC2)CC(=O)c2c(cnn2C(C)C)C3)cc(-c2ccc(C(=O)O)cc2)n1` [Example 9, 4-{4-[(1-isopropyl-7-oxo-1,4,6,7-tetrahydro-1′H-spiro[indazole-5,4′-piperidin]-1′-yl)carbonyl]-6-methoxypyridin-2-yl}benzoic acid]: the IC50 in assay [1] came to 30.9 nM; in assay [2] it was 29.7 nM.

Regarding `COc1cc(C(=O)N2CCC3(CC2)CC(=O)c2c(cnn2C(C)(C)C)C3)cc(-c2ccc(C(=O)O)cc2)n1` [Example 10, 4-{4-[(1-tert-butyl-7-oxo-1,4,6,7-tetrahydro-1′H-spiro[indazole-5,4′-piperidin]-1′-yl)carbonyl]-6-methoxypyridin-2-yl}benzoic acid], the IC50 in assay [1] (setting [3]) amounted to 30.1 nM; in assay [2] it was 35.5 nM.

For the compound `COc1cc(C(=O)N2CCC3(CC2)CC(=O)c2c(cnn2C(C)(C)C)C3)cc(-c2cccc(C(=O)O)c2)n1` [Example 11, 3-{4-[(1-tert-butyl-7-oxo-1,4,6,7-tetrahydro-1′H-spiro[indazole-5,4′-piperidin]-1′-yl)carbonyl]-6-methoxypyridin-2-yl}benzoic acid], the IC50 in assay [1] (setting [3]) is 180 nM; in assay [2], 268 nM.

On to `CC(C)n1ncc2c1C(=O)CC1(CCN(C(=O)c3cc4c(-c5cccc(C(=O)O)c5)cccc4[nH]3)CC1)C2` [Example 15, 3-{2-[(1-isopropyl-7-oxo-1,4,6,7-tetrahydro-1′H-spiro[indazole-5,4′-piperidin]-1′-yl)carbonyl]-1H-indol-4-yl}benzoic acid], for which the IC50 in assay [1] (setting [3]) stood at 6.11 nM; in assay [2] it was 7.88 nM.

As for `CC(C)n1ncc2c1C(=O)CC1(CCN(C(=O)c3cc4c(-c5ccc(C(=O)O)cc5)cccc4[nH]3)CC1)C2` [Example 16, 4-{2-[(1-isopropyl-7-oxo-1,4,6,7-tetrahydro-1′H-spiro[indazole-5,4′-piperidin]-1′-yl)carbonyl]-1H-indol-4-yl}benzoic acid], the values for the IC50 in assay [1] (setting [3]) and in assay [2] were 9.75 nM and 11.6 nM, respectively.
